Results reported in EP4471049A1 (Zealand Pharma A/S, priority 2023, dated 2024).
One block for each molecule: values may come before it. *1 amine or outer side, *2 acyl side, *3 side chain or, on linkers, in order; H or OH if unused. Where a SMILES comes first, the peptide text is derived from it. Bridges are numbered along the chain shown (N, C = ends). [ ]: non-standard residue; d: D form. 2Nal = N[C@@H](Cc1ccc2ccccc2c1)C(=O)O; AEF = NCCOc1ccc(C[C@H](N)C(=O)O)cc1; X1 = O=C(Cc1ccc(CN[*:1])cc1)[*:2]; 3Pal = N[C@@H](Cc1cccnc1)C(=O)O; αMeL = CC(C)C[C@](C)(N)C(=O)O; Dab = NCC[C@H](N)C(=O)O

Tests used:
[1] = Peptide stability in simulated intestinal fluid (SIF); format: in vitro ADME; conditions: 37 °C, pH 6.8, porcine pancreatin 10 g/L, 10 µM; for remaining at 4 h, 10 µM / remaining at 1 h, 10 µM: pig, simulated intestinal fluid (SIF) with porcine pancreatin; for remaining at 4 h, 10 µM: read-out: SIF (% remaining 4 h)
Protocol: (§1) SGF was prepared by dissolving sodium chloride (0.2 g) in 50 mL of water. A volume of 0.7 mL of 10 M HCl was added to adjust the pH of the solution to 1.2 and the volume made up to 100 mL with water. […] SIF was prepared by dissolving monobasic potassium phosphate (0.68 g) in 50 mL of water and adjusting the pH to 6.8 with 1 M NaOH. The volume was subsequently made up to 100 mL with water. 200 mg porcine pancreatin (P1625, Sigma Aldrich) was gently dissolved into 20 mL preheated (37 °C) solution (10 g/L) immediately prior to the incubation.
(§2) The incubation was performed at 37 °C with gentle shaking. […] After the last timepoint, the sampling plate was mixed for 10 min on a shaking table and centrifuged 10 min at 2200 g. 70 µL resulting supernatant was diluted with 150 µL water, mixed and centrifugated before analysis by liquid chromatography high resolution mass spectrometry. […] Percent remaining at each timepoint was calculated relative to timepoint zero based on absolute peak areas.
Compounds with a SIF stability (after 4 h) above 70% are considered highly SIF stable.

[2] = Peptide stability in simulated gastric fluid (SGF); format: in vitro ADME; conditions: 37 °C, pH 1.2, porcine pepsin 3.2 g/L; for remaining at 4 h, 10 µM / remaining at 1 h, 10 µM: pig, simulated gastric fluid (SGF) with porcine pepsin
Protocol: as §1, §2
Compounds with a SGF stability (after 4 h) above 70% are considered highly SGF stable. […] Table 3-4: SGF data

human IL-23R = molecular target: T1, human IL-23R (Homo sapiens, UniProt Q5VWK5); experiment: biochemical; conditions: for Emax: read-out: % displacement (hIL-23R binding)
T1 sequence (Q5VWK5 22-629): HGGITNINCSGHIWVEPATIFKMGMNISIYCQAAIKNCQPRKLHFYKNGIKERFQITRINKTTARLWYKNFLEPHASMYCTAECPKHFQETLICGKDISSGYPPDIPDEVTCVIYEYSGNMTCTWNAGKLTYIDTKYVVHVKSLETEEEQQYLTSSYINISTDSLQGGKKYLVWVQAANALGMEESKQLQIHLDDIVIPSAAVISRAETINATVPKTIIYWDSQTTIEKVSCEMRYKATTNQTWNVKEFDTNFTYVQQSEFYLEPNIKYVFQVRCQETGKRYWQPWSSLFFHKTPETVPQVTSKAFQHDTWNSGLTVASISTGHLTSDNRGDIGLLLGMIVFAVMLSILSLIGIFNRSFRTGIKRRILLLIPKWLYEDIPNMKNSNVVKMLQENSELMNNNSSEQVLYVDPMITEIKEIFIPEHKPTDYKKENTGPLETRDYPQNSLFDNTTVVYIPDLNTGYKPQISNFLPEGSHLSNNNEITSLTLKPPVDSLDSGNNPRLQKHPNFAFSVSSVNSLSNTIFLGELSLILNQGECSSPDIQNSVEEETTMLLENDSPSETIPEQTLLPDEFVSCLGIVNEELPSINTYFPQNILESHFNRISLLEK
Procedure, shortened: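 BRET displacement of a TAMRA-labelled reference compound from N-terminal Nanoluc-IL-23R fusion protein in membranes from stably transfected HEK293 cells. Incubation 2 h at room temperature, then Nanoluc substrate was added and the TAMRA/Nanoluc ratio read. IC50 and maximal displacement came from 4-parameter logistic fits.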

Compound: CC(C)C[C@@H]1NC(=O)[C@H](Cc2c[nH]c3ccccc23)NC(=O)[C@H](Cc2c[nH]c3ccccc23)NC(=O)[C@@H]2CSCC(=O)CSC[C@H](NC(=O)[C@H](CO)NC(=O)[C@@H](NC(=O)[C@@H](N)CC(=O)O)CSCC(=O)CSC[C@@H](C(=O)N[C@@H](CCCNC(=N)N)C(N)=O)NC1=O)C(=O)N[C@@H](Cc1c[nH]c3ccccc13)C(=O)N[C@@H](CCC(N)=O)C(=O)N2 (single isomer, unassigned) [I3 (isomer 3), H-DC(1a)SC(2a)WQC(2a)WWLC(1a)R-[NH2], reference compound]
SIF (% remaining 1 h) ([1]; 1 h): 0%
SIF (% remaining 4 h) ([1]; 4 h): 0%
SGF (% remaining 1 h) ([2]; 1 h, 10 µM): 5%
SGF (% remaining 4 h) ([2]; 4 h, 10 µM): 0%

Compound: CC(C)C[C@]1(C)NC(=O)[C@H](Cc2ccc3ccccc3c2)NC(=O)[C@H](Cc2ccc(OCCN)cc2)NC(=O)[C@@H]2CCNC(=O)CC[C@H](NC(=O)[C@H](CO)NC(=O)Cc3ccc(cc3)CNC(=O)CC[C@@H](C(=O)N[C@@H](CCN)C(=O)N[C@@H](Cc3cn(C)cn3)C(N)=O)NC1=O)C(=O)N[C@@H](Cc1c[nH]c3ccccc13)C(=O)N[C@@H](CCC(N)=O)C(=O)N2 [Compound 14, [4-Aminomethyl-phenylacetyl](1c)*SE(2c)WQ[Dab](2c)[Y(2-aminoethoxy)][2-Nal][2-Me-Leu]E(1c)[Dab][H(Me)]-[NH2]]
remaining at 4 h, 10 µM ([1]; 4 h): 75%
remaining at 4 h, 10 µM ([2]; 4 h): 82%
% displacement (hIL-23R binding) (human IL-23R): 102%

Compound: CNC(=O)[C@H](Cc1cccnc1)NC(=O)[C@H](CCN)NC(=O)[C@@H]1CCC(=O)NCc2ccc(cc2)CC(=O)N[C@@H](CO)C(=O)N[C@H]2CCC(=O)NCC[C@H](NC(=O)[C@H](CCNC(C)=O)NC(=O)[C@H](Cc3c[nH]c4ccccc34)NC2=O)C(=O)N[C@@H](Cc2ccc(OCCN)cc2)C(=O)N[C@@H](Cc2ccc3ccccc3c2)C(=O)N[C@@](C)(CC(C)C)C(=O)N1 [Compound 25, [4-Aminomethyl-phenylacetyl](1c)*SE(2c)W[Dab(Ac)][Dab](2c)[Y(2-aminoethoxy)][2-Nal][2-Me-Leu]E(1c)[Dab][3-(3-Pyridyl)-Ala]-[NHMe]] ([X1]SEW[Dab](Ac)[Dab][AEF][2Nal][αMeL]E[Dab][3Pal]-NHMe; lactam 3-6, N-10)
remaining at 4 h, 10 µM ([1]; 4 h): 91%
remaining at 4 h, 10 µM ([2]; 4 h): 88%
Emax (human IL-23R): 93%

Compound: CNC(=O)[C@H](Cc1cccnc1)NC(=O)[C@H](CCC(N)=O)NC(=O)[C@@H]1CCC(=O)NCc2ccc(cc2)CC(=O)N[C@@H](CO)C(=O)N[C@H]2CCC(=O)NCC[C@H](NC(=O)[C@H](CCC(N)=O)NC(=O)[C@H](Cc3c[nH]c4ccccc34)NC2=O)C(=O)N[C@@H](Cc2ccc(OCCN)cc2)C(=O)N[C@@H](Cc2ccc3ccccc3c2)C(=O)N[C@@](C)(CC(C)C)C(=O)N1 [Compound 33, [4-Aminomethyl-phenylacetyl](1c)*SE(2c)WQ[Dab](2c)[Y(2-aminoethoxy)][2-Nal][2-Me-Leu]E(1c)Q[3-(3-Pyridyl)-Ala]-[NHMe]] ([X1]SEWQ[Dab][AEF][2Nal][αMeL]EQ[3Pal]-NHMe; lactam 3-6, N-10)
remaining at 4 h, 10 µM ([1]; 4 h): 69%
remaining at 4 h, 10 µM ([2]; 4 h): 93%
IC50 (human IL-23R): 0.014 nM
Emax (human IL-23R): 92%

Compound: CNC(=O)[C@H](Cc1cccnc1)NC(=O)[C@H](Cc1c[nH]cn1)NC(=O)[C@@H]1CCC(=O)NCc2ccc(cc2)CC(=O)N[C@@H](CO)C(=O)N[C@H]2CCC(=O)NCC[C@H](NC(=O)[C@H](CCC(N)=O)NC(=O)[C@H](Cc3c[nH]c4ccccc34)NC2=O)C(=O)N[C@@H](Cc2ccc(OCCN)cc2)C(=O)N[C@@H](Cc2ccc3ccccc3c2)C(=O)N[C@@](C)(CC(C)C)C(=O)N1 [Compound 34, [4-Aminomethyl-phenylacetyl](1c)*SE(2c)WQ[Dab](2c)[Y(2-aminoethoxy)][2-Nal][2-Me-Leu]E(1c)H[3-(3-Pyridyl)-Ala]-[NHMe]] ([X1]SEWQ[Dab][AEF][2Nal][αMeL]EH[3Pal]-NHMe; lactam 3-6, N-10)
remaining at 1 h, 10 µM ([1]; 1 h): 87%
remaining at 4 h, 10 µM ([1]; 4 h): 56%
remaining at 1 h, 10 µM ([2]; 1 h): 96%
% displacement (hIL-23R binding) (human IL-23R): 90%
IC50 (human IL-23R): 0.013 nM

Compound: CNC(=O)[C@H](Cc1cccnc1)NC(=O)C1(NC(=O)[C@@H]2CCC(=O)NCc3ccc(cc3)CC(=O)N[C@@H](CO)C(=O)N[C@H]3CCC(=O)NCC[C@H](NC(=O)[C@H](CCC(N)=O)NC(=O)[C@H](Cc4c[nH]c5ccccc45)NC3=O)C(=O)N[C@@H](Cc3ccc(OCCN)cc3)C(=O)N[C@@H](Cc3ccc4ccccc4c3)C(=O)N[C@@](C)(CC(C)C)C(=O)N2)CCOCC1 [Compound 35, [4-Aminomethyl-phenylacetyl](1c)*SE(2c)WQ[Dab](2c)[Y(2-aminoethoxy)][2-Nal][2-Me-Leu]E(1c)[THP][3-(3-Pyridyl)-Ala]-[NHMe]]
remaining at 1 h, 10 µM ([1]; 1 h): 110%
remaining at 4 h, 10 µM ([2]; 4 h): 94%
% displacement (hIL-23R binding) (human IL-23R): 101%

Results, then the molecule that gave them:

remaining at 4 h, 10 µM ([1]; 4 h): 65%
remaining at 1 h, 10 µM ([2]; 1 h): 96%
% displacement (hIL-23R binding) (human IL-23R): 98%
IC50 (human IL-23R): 0.027 nM
Compound: CCCC[C@H](NC(=O)[C@@H]1CCC(=O)NCc2ccc(cc2)CC(=O)N[C@@H](CO)C(=O)N[C@H]2CCC(=O)NCC[C@H](NC(=O)[C@H](CCC(N)=O)NC(=O)[C@H](Cc3c[nH]c4ccccc34)NC2=O)C(=O)N[C@@H](Cc2ccc(OCCN)cc2)C(=O)N[C@@H](Cc2ccc3ccccc3c2)C(=O)N[C@@](C)(CC(C)C)C(=O)N1)C(=O)N[C@@H](Cc1cccnc1)C(=O)NC [Compound 32, [4-Aminomethyl-phenylacetyl](1c)*SE(2c)WQ[Dab](2c)[Y(2-aminoethoxy)][2-Nal][2-Me-Leu]E(1c)[Nle][3-(3-Pyridyl)-Ala]-[NHMe]]

remaining at 4 h, 10 µM ([1]; 4 h): 55%
remaining at 1 h, 10 µM ([2]; 1 h): 96%
% displacement (hIL-23R binding) (human IL-23R): 94%
IC50 (human IL-23R): 0.014 nM
Compound: CNC(=O)[C@H](Cc1cccnc1)NC(=O)[C@H](CCO)NC(=O)[C@@H]1CCC(=O)NCc2ccc(cc2)CC(=O)N[C@@H](CO)C(=O)N[C@H]2CCC(=O)NCC[C@H](NC(=O)[C@H](CCC(N)=O)NC(=O)[C@H](Cc3c[nH]c4ccccc34)NC2=O)C(=O)N[C@@H](Cc2ccc(OCCN)cc2)C(=O)N[C@@H](Cc2ccc3ccccc3c2)C(=O)N[C@@](C)(CC(C)C)C(=O)N1 [Compound 36, [4-Aminomethyl-phenylacetyl](1c)*SE(2c)WQ[Dab](2c)[Y(2-aminoethoxy)][2-Nal][2-Me-Leu]E(1c)[hSer][3-(3-Pyridyl)-Ala]-[NHMe]]

remaining at 1 h, 10 µM ([1]; 1 h): 78%
remaining at 4 h, 10 µM ([1]; 4 h): 69%
remaining at 1 h, 10 µM ([2]; 1 h): 97%
% displacement (hIL-23R binding) (human IL-23R): 95%
IC50 (human IL-23R): 0.013 nM
Compound: CNC(=O)[C@H](Cc1cccnc1)NC(=O)[C@H](COC)NC(=O)[C@@H]1CCC(=O)NCc2ccc(cc2)CC(=O)N[C@@H](CO)C(=O)N[C@H]2CCC(=O)NCC[C@H](NC(=O)[C@H](CCC(N)=O)NC(=O)[C@H](Cc3c[nH]c4ccccc34)NC2=O)C(=O)N[C@@H](Cc2ccc(OCCN)cc2)C(=O)N[C@@H](Cc2ccc3ccccc3c2)C(=O)N[C@@](C)(CC(C)C)C(=O)N1 [Compound 37, [4-Aminomethyl-phenylacetyl](1c)*SE(2c)WQ[Dab](2c)[Y(2-aminoethoxy)][2-Nal][2-Me-Leu]E(1 c)[Ser(OMe)][3-(3-Pyridyl)-Ala]-[NHMe]]
